This is an account of results in US7037656B2, “Methods and compositions for identifying ligands for nuclear receptors” (priority 2000, dated 2006).

Holding throughout (experiment): Yeast 6x EcRE-lacZ β-galactosidase transactivation assay
One test deals with Aa EcR + Aa USPb. Type of test: cell-based, Aedes aegypti. To be noted: RH 5992 10 μM, 4 hours, DMSO control 3.000. On the procedure:
(§1) Briefly, yeast cells are cultured in 5 mL of YPD liquid medium overnight at 30° C. The cell culture was diluted 1:20 in YPD media and further grown until cell density reached an O.D of 0.6. at OD600. The cells were pelleted by centrifugation and washed with 10 mL of TE+0.1M lithium acetate. Cells are then resuspended in 10 mL TE+0.1M lithium acetate and incubated at 30° C. for 1 hour. Cells are collected and resuspended in 0.5 mL of TE+ 0.1M lithium acetate. Aliquots of cells (50 μL), were incubated for 15 minutes at 30° C. with 1–2 μg plasmid DNA in the presence of 5 μg of denatured salmon sperm DNA as DNA carrier. In the case of co-transformation, the indicated plasmids were added simultaneously. 50% polyethyleneglycol of molecular weight 4000, diluted in TE, was added to a final concentration of 35%. DMSO was added to the transformation solution simultaneously to a final concentration 3%. The samples were mixed well by vortexing and incubated for an additional 30 minutes at 30° C. The cell mixture is then heated for 15 minutes at 42° C. Cells were then collected and plated onto appropriate yeast selective media. Transformants of 4 plasmids are selected on the complete media without tryptophan, uracil, leucine and histidine.
(§2) The yeast cells grown overnight in selective liquid media at 30° C. were diluted in prewarmed liquid selective media to 0.1 at OD600 (ODculture). 100 μl of the cell culture was spiked to each well of a.96-well microtiter plate. Ligand (2 μl diluted in DMSO) was added to each well giving a final concentration of DMSO of 2%. As a control, 2 μl of DMSO were also added to additional test wells. The final concentration of the tested compounds in the media is 10 μM. The cells were incubated in the presence of ligand in a shaker at 30° C. After 4 hours of incubation, 100 μl of 2× “Z” Sarcosine-ONPG buffer (120 mM Na2HPO4, 80 mM NaH2PO4, 20 mM KCl, 2 mM MgSO4, 100 mM beta-mercaptoethanol (Sigma), pH 7.0, 0.4% lauroyl sarcosine (Sigma), 4 mg/mL ONPG (Diagnostic Chemicals limited) was added to each well and the plate was further incubated at 37° C. The 2× “Z” Sarcosine-ONPG buffer is freshly prepared or stored at −20° C. prior to use. After incubation at 37° C. for 1 hour. The reaction was stopped by adding 100 μL of quenching solution 0.5 M Na2CO3 and OD405 (ODreaction) and beta-galactosidase activity was measured in a micro plate reader (Biotek) at a wave length of 405–450 nanometers. The effect of copper on enhancement of the transactivation response mediated by the ligands tested was studied by adding CuSO4 to the media to a final concentration of 10 μM.
(§3) Using the transformation method described above, yeast were co-transformed with a reporter gene as shown in FIG. 2 and the expression vector encoding the full-length Aedes aegypti ecdysone receptor, Aa EcR (FIG. 7A) in the presence or absence of the Aa EcR heterodimer partner, Aa USP (a or b form, FIGS. 8A and 8B respectively). Transformed cells were incubated with DMSO alone as a control, or with a proprietary ecdysone receptor ligand (Rohm & Haas tebufenozide[RH5992]) at final concentration 10 μM for 4 hours. The samples were then assayed for β-galactosidase activity as described above. […] As the N-terminal portion of the AaEcR receptor is reported to play a role in ligand independent transactivation, an expression vector containing an N-terminal deletion in the Aa EcR was constructed (see FIG. 7B) and assessed in the β-galactosidase assays described above. […] Restoration of ligand dependent transactivation was observed only when the AaΔN EcR, AaUSP (a or b forms) and co-activator GRIP1 were coexpressed. As in the Drosophila system, the data obtained indicate that the efficiency of ligand-dependent transactivation of the ecdysone receptor in mosquito A. aegypti is dependent on the both heterodimer formation of EcR/USP and also upon proper interaction with co-activator GRIP1.

For the next test, the system named is Aa USPb. The test is classed as cell-based, Aedes aegypti. The conditions noted are these: RH 5992 10 μM, 4 hours, DMSO control 0.196. On the procedure: as §1, §2, §3
For another test, the system named is Aa EcR + Aa USPa. Type of test: cell-based, Aedes aegypti. The conditions noted are these: RH 5992 10 μM, 4 hours, DMSO control 2.300. On the procedure:
as §1, §2, §3

The next test concerns Aa ΔA/B EcR + Aa USPa. The test is classed as cell-based, Aedes aegypti. To be noted: 4 hours. As for the experimental part: as §1, §2, §3
Test [1] relates to Aa ΔA/B EcR + Aa ΔA/B USP. Type of test: cell-based, Aedes aegypti. The conditions noted are these: RH 5992 10 μM, 4 hours, DMSO control 0.187. On the procedure:
as §1, §2, §3

The test system of a further test is Aa USPa. The test is classed as cell-based, Aedes aegypti. The conditions noted are these: RH 5992 10 μM, 4 hours, DMSO control 0.210. On the procedure:
as §1, §2, §3

Test [2] has as its target T1, Dm ΔN EcR +Cf ΔA/B USP + GRIP1 (Drosophila melanogaster, UniProt P34021).
T1 construct: ubiquitin (human, 76 aa) (N, cleaved yes); expressed in transfected cells
The test is classed as cell-based, Drosophila melanogaster; Choristoneura fumiferana. The conditions noted are these: RH 5992 10 μM, 4 hours, DMSO control 0.235. On the procedure:
as §1, with “DMSO was added to the transformation solution simultaneously to a final concentration 3%. The samples were mixed well by vortexing and incubated for an additional 30 minutes at 30° C. The cell mixture is then heated for 15 minutes at 42° C. Cells were then collected and plated onto appropriate yeast selective media. Transformants of 4 plasmids are selected on the complete media without tryptophan, uracil, leucine and histidine.” left out
(§4) Using the transformation method set forth above, yeast were co-transformed with a reporter gene as shown in FIG. 2 and the expression vector encoding the full-length D. melanogaster ecdysone receptor, DmEcR (FIG. 3A) in the presence or absence of the Dm EcR heterodimer partner, DmUSP (FIG. 4A). […] As the N-terminal portion of the Dm EcR receptor is reported to play a role in ligand independent transactivation, an expression vector containing an N-terminal deletion in the EcR was constructed (see FIG. 3B) and assessed in the β-galactosidase assays described above. […]

Test [3] concerns the target T2, Dm ΔN EcR + Cf USP + GRIP1 (Drosophila melanogaster, UniProt P34021).
T2 construct: ubiquitin (human, 76 aa) (N, cleaved yes); expressed in transfected cells
The test is classed as cell-based, Drosophila melanogaster; Choristoneura fumiferana. The conditions noted are these: RH 5992 10 μM, 4 hours, DMSO control 1.149. As for the experimental part: as §1, with “DMSO was added to the transformation solution simultaneously to a final concentration 3%. The samples were mixed well by vortexing and incubated for an additional 30 minutes at 30° C. The cell mixture is then heated for 15 minutes at 42° C. Cells were then collected and plated onto appropriate yeast selective media. Transformants of 4 plasmids are selected on the complete media without tryptophan, uracil, leucine and histidine.” left out
as §4

SMILES strings stand for the structures.

T1 sequence (P34021 221-878, stated change not applied): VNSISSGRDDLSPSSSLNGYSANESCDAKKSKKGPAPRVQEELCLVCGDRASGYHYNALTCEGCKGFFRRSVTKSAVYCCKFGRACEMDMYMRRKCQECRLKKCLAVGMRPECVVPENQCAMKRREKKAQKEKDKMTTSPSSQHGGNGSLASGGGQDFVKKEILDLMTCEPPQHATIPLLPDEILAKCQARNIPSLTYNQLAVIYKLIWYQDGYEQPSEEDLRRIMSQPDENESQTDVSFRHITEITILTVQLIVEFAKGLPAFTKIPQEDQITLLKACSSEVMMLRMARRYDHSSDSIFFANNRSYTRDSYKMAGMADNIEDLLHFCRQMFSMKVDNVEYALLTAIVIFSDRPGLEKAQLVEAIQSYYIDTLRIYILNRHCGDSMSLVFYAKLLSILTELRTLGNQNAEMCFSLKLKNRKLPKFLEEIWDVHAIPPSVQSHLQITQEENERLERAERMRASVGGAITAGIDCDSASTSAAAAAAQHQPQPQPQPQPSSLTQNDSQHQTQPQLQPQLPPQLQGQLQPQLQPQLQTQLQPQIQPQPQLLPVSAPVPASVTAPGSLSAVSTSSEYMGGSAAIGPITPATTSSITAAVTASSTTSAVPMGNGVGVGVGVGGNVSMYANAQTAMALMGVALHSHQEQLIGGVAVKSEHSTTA
T1 sequence (O76202 with tags, fused parts or gaps partner): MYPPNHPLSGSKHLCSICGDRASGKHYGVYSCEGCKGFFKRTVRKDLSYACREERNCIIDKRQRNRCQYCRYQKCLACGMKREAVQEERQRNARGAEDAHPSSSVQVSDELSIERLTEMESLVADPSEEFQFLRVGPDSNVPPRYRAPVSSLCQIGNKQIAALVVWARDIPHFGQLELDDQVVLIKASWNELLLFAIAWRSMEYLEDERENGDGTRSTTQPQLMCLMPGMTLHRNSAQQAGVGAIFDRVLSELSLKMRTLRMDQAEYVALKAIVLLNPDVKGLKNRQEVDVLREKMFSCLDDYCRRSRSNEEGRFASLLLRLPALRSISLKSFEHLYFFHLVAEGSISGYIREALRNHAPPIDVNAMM
T2 sequence (P34021 221-878 limits assumed, stated change not applied): as the sequence (P34021 221-878, stated change not applied) above
T2 sequence (O76202 whole entry partner): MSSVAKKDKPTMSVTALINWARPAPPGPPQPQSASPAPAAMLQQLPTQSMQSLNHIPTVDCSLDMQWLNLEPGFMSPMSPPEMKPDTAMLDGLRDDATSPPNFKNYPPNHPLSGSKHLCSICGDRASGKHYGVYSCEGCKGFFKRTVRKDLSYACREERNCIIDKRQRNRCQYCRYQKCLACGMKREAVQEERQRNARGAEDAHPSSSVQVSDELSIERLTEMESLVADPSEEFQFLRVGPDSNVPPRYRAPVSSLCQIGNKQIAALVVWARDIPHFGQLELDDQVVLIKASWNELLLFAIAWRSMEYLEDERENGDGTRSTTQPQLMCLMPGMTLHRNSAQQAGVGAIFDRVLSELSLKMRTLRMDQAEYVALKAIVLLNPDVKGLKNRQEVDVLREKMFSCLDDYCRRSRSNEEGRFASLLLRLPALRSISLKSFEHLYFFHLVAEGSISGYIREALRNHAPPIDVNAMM
T2 sequence (Q61026 322-1121 partner limits assumed): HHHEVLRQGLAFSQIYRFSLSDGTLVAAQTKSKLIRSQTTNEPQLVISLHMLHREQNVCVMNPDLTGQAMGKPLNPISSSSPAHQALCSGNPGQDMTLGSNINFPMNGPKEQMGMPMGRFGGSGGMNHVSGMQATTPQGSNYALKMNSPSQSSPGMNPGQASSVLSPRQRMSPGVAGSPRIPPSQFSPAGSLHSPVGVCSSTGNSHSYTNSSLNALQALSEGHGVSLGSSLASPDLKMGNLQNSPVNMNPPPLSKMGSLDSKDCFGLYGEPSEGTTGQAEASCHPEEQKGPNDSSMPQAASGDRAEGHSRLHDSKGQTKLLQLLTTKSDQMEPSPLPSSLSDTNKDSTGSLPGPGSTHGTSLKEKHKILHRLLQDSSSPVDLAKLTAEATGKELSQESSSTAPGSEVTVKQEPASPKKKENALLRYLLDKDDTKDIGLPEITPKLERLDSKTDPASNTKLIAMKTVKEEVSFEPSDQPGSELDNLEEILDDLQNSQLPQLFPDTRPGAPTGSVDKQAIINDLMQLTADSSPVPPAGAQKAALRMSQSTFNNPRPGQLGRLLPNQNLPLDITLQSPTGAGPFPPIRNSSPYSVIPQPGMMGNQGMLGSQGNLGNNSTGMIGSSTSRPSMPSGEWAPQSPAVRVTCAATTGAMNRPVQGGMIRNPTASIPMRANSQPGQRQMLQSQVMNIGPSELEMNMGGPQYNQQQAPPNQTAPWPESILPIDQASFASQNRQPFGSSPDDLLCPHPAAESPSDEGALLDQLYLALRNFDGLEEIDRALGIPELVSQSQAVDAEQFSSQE

Regarding `CCc1ccc(C(=O)NN(C(=O)c2cc(C)cc(C)c2)C(C)(C)C)cc1` [RH 5992, tebufenozide], the β-galactosidase activity in the test on Aa EcR + Aa USPb was found to be 2.700; in the test with Aa USPb, 0.210; in the test on Aa EcR + Aa USPa it was 2.453; with Aa ΔA/B EcR + Aa USPa (RH 5992 10 μM, yeast, Aa ΔA/B EcR + Aa USPa, DMSO control 0.194), 0.209; in test [1], 0.196; with Aa USPa, 0.223. For the same compound, the values for the β-galactosidase activity in test [2] and in test [3] were 0.590 and 1.409, respectively. For the same compound, the “transactivation of the reporter gene (in words)” value in the test on Aa ΔA/B EcR + Aa USPa (10 μM, Aa EcR with N-terminal deletion, Aa USP present or absent, no GRIP1) is listed as “incapable of transactivating the reporter gene”.
